Laboratory results published in patent US9487489B2, “Halogen-substituted pyrazole derivatives as pest-control agents” (BAYER CROPSCIENCE AKTIENGESELLSCHAFT, priority 2013, dated 2016).

How the values were obtained:
[1] = logP determination by HPLC on a reversed-phase column (C18), EEC Directive 79/831 Annex V.A8; type: physicochemical; conditions: HPLC on reversed-phase column (C18), acetonitrile/water with formic acid, EEC Directive 79/831 Annex V.A8
In short: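 Per EEC 79/831 Annex V.A8, values derive from HPLC retention at 2.0 ml/min and 55° C on a 50*4.6 C18 column. The 10→95% acetonitrile gradient (0.1%/0.09% formic acid) lasted 4.25 min plus a 1.25 min hold; mass detection was by MSD.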

[2] = tested on: green peach aphid (Myzus persicae); assay: Myzus persicae spray test (MYZUPE); type: in vivo; conditions: Chinese cabbage leaf discs, after 6 days
Method: G. Myzus persicae-spray Test (MYZUPE)
Solvents: 78 parts by weight of acetone
• 1.5 parts by weight of dimethylformamide Emulsifier: alkylaryl polyglycol ether
To produce a suitable preparation of active compound, 1 part by weight of active compound is dissolved using the stated parts by weight of solvent and made up with water comprising an emulsifier concentration of 1000 ppm until the desired concentration is reached. To produce further test concentrations, the preparation is diluted with emulsifier-containing water.
Discs of Chinese cabbage leaves (Brassica pekinensis) infested by all stages of the green peach aphid (Myzus persicae) are sprayed with an active compound preparation of the desired concentration.
After 6 days, the efficacy in % is determined 100% here means that all of the aphids have been killed; 0% means that no aphids have been killed.

[3] = tested on: larvae of the mustard beetle (Phaedon cochleariae); assay: Phaedon cochleariae spray test (PHAECO); type: in vivo; conditions: Chinese cabbage leaf discs, after 7 days
In short: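 Kill of mustard beetle larvae is read as % mortality 7 days after spraying. Spray liquid: active compound in acetone plus dimethylformamide, brought up with water holding 1000 ppm alkylaryl polyglycol ether emulsifier and diluted further in emulsifier-water.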

[4] = tested on: caterpillars of the armyworm (Spodoptera frugiperda); assay: Spodoptera frugiperda spray test (SPODFR); type: in vivo; conditions: maize leaf discs, after 7 days
In short: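 Percent kill read at day 7 on caterpillar-infested maize leaf discs. Discs were first sprayed with aqueous emulsifier-containing (1000 ppm) preparations made from acetone/dimethylformamide solutions, and dried. Scale: 0% none dead, 100% all dead.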

[5] = tested on: greenhouse red spider mite (Tetranychus urticae); assay: Tetranychus urticae spray test, OP-resistant (TETRUR); type: in vivo; conditions: bean leaf discs, after 6 days
In short: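 Percent kill, scored 6 days post-spray (0% = none dead, 100% = all dead), on Phaseolus vulgaris leaf discs infested with every life stage of the OP-resistant spider mite. Compound dissolved in acetone plus DMF, diluted to test concentration with emulsifier-containing water (1000 ppm).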

[6] = tested on: adult cat fleas (Ctenocephalides felis); assay: Ctenocephalides felis in vitro contact test with adult cat fleas (T1); conditions: after 48 h
In short: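 Adult cat fleas (Ctenocephalides felis), 5-10 per tube, were exposed to the inner surface of 25 ml test tubes coated with compound in acetone. Tubes were incubated lying flat under ambient conditions. Efficacy was then read by standing tubes upright and knocking the fleas to the floor. Fleas that stayed motionless or moved uncoordinatedly counted as dead or moribund, where 100% means all fleas dead or moribund and 0% means none harmed.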

[7] = tested on: adult dog ticks (Rhipicephalus sanguineus); assay: Rhipicephalus sanguineus in vitro contact test with adult brown dog ticks (T2); conditions: application rate 5 μg/cm^2; after 48 h
In short: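 Acetone solutions coated onto test tube walls and floor, giving 5 μg/cm^2 at 900 ppm. Five to ten adult ticks held per tube in the dark at room temperature for 48 h, then heated at 45-50° C for up to 5 min; efficacy is the percentage of dead or moribund ticks unable to climb away.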

Compound	logP [1]	efficacy in % ([2]; application rate 100 g/ha) [%]	efficacy in % ([3]; application rate 100 g/ha) [%]	efficacy in % ([4]; application rate 100 g/ha) [%]	efficacy in % ([5]; application rate 100 g/ha) [%]	efficacy in % ([2]; application rate 500 g/ha) [%]	efficacy in % ([3]; application rate 500 g/ha) [%]	efficacy in % ([4]; application rate 500 g/ha) [%]	efficacy in % ([5]; application rate 500 g/ha) [%]	efficacy (dead or moribund fleas) ([6]; application rate 1 μg/cm^2) [%]	efficacy (dead or moribund fleas) ([6]; application rate 5 μg/cm^2) [%]	efficacy (dead or moribund ticks) [7] [%]
Cn1nc(C(F)(F)C(F)(F)F)c(C(F)(F)F)c1-n1cc(-c2ccc(S(C)(=O)=O)c(C(=O)NC3CC3)c2)cn1 [Ic-190]	3.35	100	100	100	100							
Cn1nc(C(F)(F)C(F)(F)F)c(C(F)(F)F)c1-n1cc(-c2ccc(Cl)c(C(=O)NC3(C4CC4)CC3)c2)cn1 [Ic-188]	4.43					100	100	100	100			
CCO[C@@H]1C[C@H]1NC(=O)c1cc(-c2cnn(-c3c(C(F)(F)F)c(C(F)(F)C(F)(F)F)nn3C)c2)ccc1Cl [Ic-180]	3.99					90	100	100	100			
Cn1nc(C(F)(F)C(F)(F)F)c(C(F)(F)F)c1-n1cc(-c2ccc(Cl)c(C(=O)NC3CC(S(C)(=O)=O)C3)c2)cn1 (stereo not drawn) [Ic-122]	3.24	90	100	100	100							
Cn1nc(C(F)(F)C(F)(F)F)c(C(F)(F)F)c1-n1cc(-c2ccc(Cl)c(C(=O)NC3C[S+]([O-])C3)c2)cn1 (stereo not drawn) [Ic-116]	3.03					90	100	100	100			
CON=Cc1ccc(-c2cnn(-c3c(C(F)(F)F)c(C(F)(F)C(F)(F)F)nn3C)c2)cc1C(=O)NC1CC1 (mixture of isomers) [Ic-118]	3.99	100	100	100	100					100	100	
Cn1nc(C(F)(F)C(F)(F)F)c(C(F)(F)F)c1-n1cc(-c2ccc(Cl)c(C(=O)NC3CS(=O)(=O)C3)c2)cn1 [Ic-117]	3.37					90	100	100	100			
CSc1ccc(-c2cnn(-c3c(C(F)(F)F)c(C(F)(F)C(F)(F)F)nn3C)c2)cc1C(=O)NC1CC1 [Ic-182]	3.81	100	100	100	90							
CSC1CC(NC(=O)c2cc(-c3cnn(-c4c(C(F)(F)F)c(C(F)(F)C(F)(F)F)nn4C)c3)ccc2Cl)C1 (stereo not drawn) [Ic-108]	4.28	90	100	83	100					100	100	80
Cn1nc(C(F)(F)C(F)(F)F)c(C(F)(F)F)c1-n1cc(-c2ccc(Cl)c(C(=S)NC3CC3)c2)cn1 [Ic-132]	4.34	90	100	100	100							
Cn1nc(C(F)(F)F)c(C(F)F)c1-n1cc(-c2ccc(Cl)c(C(=O)NC3CC3)c2)cn1 [Ic-133]	3.01	100	100	100	100							
